From patent publication US9708286B2, “Ingenol-3-acylates III and ingenol-3-carbamates” (LEO Laboratories Limited, priority 2010, dated 2017) come the findings set out here.

Common to all, as to assay type: cell-based
The test system of assay [1] is PMN's (polymorphonuclear leukocytes). Briefly: Neutrophil oxidative burst. To be noted: Leukocyte, 40 min, normalized to 5×10^−7 M PEP0005. In a few lines: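 Human buffy-coat neutrophils (2.5×10^5/well) in HBSS with 0.1% BSA, 5 mM glucose treated with compound premixed with 10 μM hydroethidine for 40 min at RT; fluorescence read at 485/579 nm. Normalized to 5×10^−7 M PEP0005; Rel EC50 is midway between fitted top and bottom, Abs EC50 gives 50% of PEP0005 maximum.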

Assay [2] concerns HeLa cells. As to the kind of experiment: Necrosis assay. To be noted: Homo sapiens, 0.5 h, read-out: HeLa necrosis EC50 range. In a few lines:
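HeLa cells treated with compound at 10 μM to 400 μM (final) for 30 min at 37° C., viability then measured by PrestoBlue fluorescence (ex 535/em 630 nm). Normalized to 1% DMSO and 400 μM ingenol mebutate controls; AbsEC50 from four-parameter sigmoidal fit.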

Assay [3] has as its system Primary human epidermal keratinocytes, HeKa. Briefly: HeKa cytokine release (IL-8). To be noted: Homo sapiens, read-out: HeKa cytokine release (IL-8) Rel EC50 range. Here is the method: Primary human epidermal keratinocytes, HeKa, were seeded (10.000 cells/well) in 96-well plates the day before the assay. Test compounds were diluted in DMSO (dimethyl sulfoxide) and further diluted in assay medium and pipetted into wells of 96 well-plates containing HeKa cells. The plates were incubated for 6 h at 37° C. in humidified air with 5% CO2. Plates were centrifuged briefly to spin down cells at 4° C., the supernatant was removed and analysed by Meso Scale Discovery (MSD) 4-spot cytokine assay (Pro-inflammatory II Ultra Sensitive kit, MSD, MD, USA). The MSD assay employs a sandwich immunoassay format where capture antibodies are coated in a patterned array on the bottom of the wells of a 4-Spot-Multi-MSD plate. Standard samples were incubated in the MULTI-SPOT plates as well, and the cytokine (IL-8) binds to its corresponding capture antibody spot. The cytokine level was quantitated on a SECTOR™ Imager using a cytokine-specific Detection Antibody labelled with MSD SULFO-TAG™ reagent.
Test compound titration curves were fitted to a four-parameter sigmoidal curve after normalizing the effect of the test compound to the effect of the positive control (1.5×10^−7 M PEP0005). Rel EC50 denotes the concentration of test compound producing an effect that is midway between the fitted top and bottom.

Where [4] appears, read: read-out: Neutrophil oxidative burst Rel EC50 range, PMN from buffy coats, 40 min at RT, hydroethidine fluorescence.

Like-named read-outs stand apart in the source and are kept apart here.

Consider `CC1=C[C@]23C(=O)[C@@H](C=C(CO)[C@@H](O)[C@]2(O)[C@H]1OC(=O)c1ncoc1-c1ccccc1)[C@H]1[C@@H](C[C@H]3C)C1(C)C` [Compound 516, Ingenol 3-(5-phenyloxazole-4-carboxylate)], for which the EC50 (usually the concentration giving half of the maximal effect) in assay [1] (setting [4]) was below 20 nM; in assay [2] (HeLa), below 150 µM; in assay [3] (HEKa, 6 h), 20 to 100 nM.

For `CC1=C[C@]23C(=O)[C@@H](C=C(CO)[C@@H](O)[C@]2(O)[C@H]1OC(=O)c1noc2ccccc12)[C@H]1[C@@H](C[C@H]3C)C1(C)C` [Compound 517, Ingenol 3-(1,2-benzoxazole-3-carboxylate)], the concentration for a half-maximal effect (EC50) in assay [1] (setting [4]) was 20 to 100 nM; in assay [2] (HeLa) it was below 150 µM; in assay [3] (HEKa, 6 h), above 100 nM.

Turning to `CC1=C[C@]23C(=O)[C@@H](C=C(CO)[C@@H](O)[C@]2(O)[C@H]1OC(=O)c1c(C(C)C)noc1C)[C@H]1[C@@H](C[C@H]3C)C1(C)C` [Compound 518, Ingenol 3-(3-isopropyl-5-methyl-isoxazole-4-carboxylate)], the concentration for a half-maximal effect (EC50) in assay [1] (setting [4]) was below 20 nM; in assay [2] (HeLa), below 150 µM; in assay [3] (HEKa, 6 h), below 20 nM.

Turning to `COc1ccccc1-c1noc(C)c1C(=O)O[C@H]1C(C)=C[C@]23C(=O)[C@@H](C=C(CO)[C@@H](O)[C@]12O)[C@H]1[C@@H](C[C@H]3C)C1(C)C` [Compound 519, Ingenol 3-(3-(2-methoxyphenyl)-5-methyl-isoxazole-4-carboxylate)], the EC50 is below 20 nM in assay [1] (setting [4]); below 150 µM in assay [2] (HeLa); below 20 nM in assay [3] (HEKa, 6 h).

As to `CC1=C[C@]23C(=O)[C@@H](C=C(CO)[C@@H](O)[C@]2(O)[C@H]1OC(=O)c1c(Cl)cnn1C)[C@H]1[C@@H](C[C@H]3C)C1(C)C` [Compound 522, Ingenol 3-(4-chloro-2-methyl-pyrazole-3-carboxylate)], the EC50 in assay [1] (setting [4]) is below 20 nM; in assay [2] (HeLa), 150 to 350 µM; in assay [3] (HEKa, 6 h), below 20 nM.

As to `CC1=C[C@]23C(=O)[C@@H](C=C(CO)[C@@H](O)[C@]2(O)[C@H]1OC(=O)c1ncncc1Br)[C@H]1[C@@H](C[C@H]3C)C1(C)C` [Compound 523, Ingenol 3-(5-bromopyrimidine-4-carboxylate)], the half-maximal effective concentration (EC50) is 20 to 100 nM in assay [1] (setting [4]); above 350 µM in assay [2] (HeLa); above 100 nM in assay [3] (HEKa, 6 h).

For the compound `CC1=C[C@]23C(=O)[C@@H](C=C(CO)[C@@H](O)[C@]2(O)[C@H]1OC(=O)c1ncsc1C)[C@H]1[C@@H](C[C@H]3C)C1(C)C` [Compound 525, Ingenol 3-(5-methylthiazole-4-carboxylate)], the EC50 is 20 to 100 nM in assay [1] (setting [4]); above 350 µM in assay [2] (HeLa); above 100 nM in assay [3] (HEKa, 6 h).

For the compound `CC1=C[C@]23C(=O)[C@@H](C=C(CO)[C@@H](O)[C@]2(O)[C@H]1OC(=O)c1nn(C)cc1Cl)[C@H]1[C@@H](C[C@H]3C)C1(C)C` [Compound 526, Ingenol 3-(4-chloro-1-methyl-pyrazole-3-carboxylate)], the EC50 in assay [1] (setting [4]) is 20 to 100 nM; in assay [2] (HeLa), above 350 µM; in assay [3] (HEKa, 6 h), above 100 nM.

As for `CC1=C[C@]23C(=O)[C@@H](C=C(CO)[C@@H](O)[C@]2(O)[C@H]1OC(=O)c1sc(C)nc1C)[C@H]1[C@@H](C[C@H]3C)C1(C)C` [Compound 527, Ingenol 3-(2,4-dimethylthiazole-5-carboxylate)], the EC50 is below 20 nM in assay [1] (setting [4]); 150 to 350 µM in assay [2] (HeLa); 20 to 100 nM in assay [3] (HEKa, 6 h).

Take `CC1=C[C@]23C(=O)[C@@H](C=C(CO)[C@@H](O)[C@]2(O)[C@H]1OC(=O)c1nc(C)oc1C)[C@H]1[C@@H](C[C@H]3C)C1(C)C` [Compound 528, Ingenol 3-(2,5-dimethyloxazole-4-carboxylate)]: the half-maximal effective concentration (EC50) in assay [1] (setting [4]) was 20 to 100 nM; in assay [2] (HeLa), above 350 µM; in assay [3] (HEKa, 6 h), above 100 nM.

In the case of `CC1=C[C@]23C(=O)[C@@H](C=C(CO)[C@@H](O)[C@]2(O)[C@H]1OC(=O)c1c(C)coc1C)[C@H]1[C@@H](C[C@H]3C)C1(C)C` [Compound 529, Ingenol 3-(2,4-dimethylfuran-3-carboxylate)], the EC50 was below 20 nM in assay [1] (setting [4]); below 150 µM in assay [2] (HeLa); below 20 nM in assay [3] (HEKa, 6 h).

On to `CCc1noc(CC)c1C(=O)O[C@H]1C(C)=C[C@]23C(=O)[C@@H](C=C(CO)[C@@H](O)[C@]12O)[C@H]1[C@@H](C[C@H]3C)C1(C)C` [Compound 530, Ingenol 3-(3,5-diethylisoxazole-4-carboxylate)], for which the EC50 in assay [1] (PMN from buffy coats, 40 min at RT, hydroethidine fluorescence, read-out: Neutrophil oxidative burst Rel EC50 range) was below 20 nM; in assay [2] (HeLa cells, 30 min at 37° C., PrestoBlue, AbsEC50, normalized to 400 μM ingenol mebutate) it was below 150 µM; in assay [3] (HeKa cells, 6 h at 37° C., IL-8 by MSD assay, normalized to 1.5×10^−7 M PEP0005) it was below 20 nM.

With `CC1=C[C@]23C(=O)[C@@H](C=C(CO)[C@@H](O)[C@]2(O)[C@H]1OC(=O)c1cccc2cc[nH]c12)[C@H]1[C@@H](C[C@H]3C)C1(C)C` [Compound 531, Ingenol 3-(1H-indole-7-carboxylate)], the EC50 in assay [1] (setting [4]) is 20 to 100 nM; in assay [2] (HeLa), below 150 µM; in assay [3] (HEKa, 6 h) it was below 20 nM.

Turning to `CC1=C[C@]23C(=O)[C@@H](C=C(CO)[C@@H](O)[C@]2(O)[C@H]1OC(=O)c1cc(C)nn1C(C)(C)C)[C@H]1[C@@H](C[C@H]3C)C1(C)C` [Compound 532, Ingenol 3-(2-tert-butyl-5-methyl-pyrazole-3-carboxylate)], the EC50 was 20 to 100 nM in assay [1] (setting [4]); below 150 µM in assay [2] (HeLa); below 20 nM in assay [3] (HEKa, 6 h).

With `CC1=C[C@]23C(=O)[C@@H](C=C(CO)[C@@H](O)[C@]2(O)[C@H]1OC(=O)c1cc(C(C)(C)C)nn1C)[C@H]1[C@@H](C[C@H]3C)C1(C)C` [Compound 533, Ingenol 3-(5-tert-butyl-2-methyl-pyrazole-3-carboxylate)], the EC50 in assay [1] (setting [4]) is below 20 nM; in assay [2] (HeLa), below 150 µM; in assay [3] (HEKa, 6 h), below 20 nM.

Regarding `CC1=C[C@]23C(=O)[C@@H](C=C(CO)[C@@H](O)[C@]2(O)[C@H]1OC(=O)c1c(C)nc2sccn12)[C@H]1[C@@H](C[C@H]3C)C1(C)C` [Compound 534, Ingenol 3-(6-methylimidazo[2,1-b]thiazole-5-carboxylate)], the EC50 in assay [1] (setting [4]) is below 20 nM; in assay [2] (HeLa), 150 to 350 µM; in assay [3] (HEKa, 6 h), below 20 nM.

On to `CC1=C[C@]23C(=O)[C@@H](C=C(CO)[C@@H](O)[C@]2(O)[C@H]1OC(=O)c1c(C)oc(C)c1C)[C@H]1[C@@H](C[C@H]3C)C1(C)C` [Compound 536, Ingenol 3-(2,4,5-trimethylfuran-3-carboxylate)], for which the EC50 in assay [1] (setting [4]) is below 20 nM; in assay [2] (HeLa) it was 150 to 350 µM; in assay [3] (HEKa, 6 h), below 20 nM.

Regarding `CC1=C[C@]23C(=O)[C@@H](C=C(CO)[C@@H](O)[C@]2(O)[C@H]1OC(=O)c1sccc1C)[C@H]1[C@@H](C[C@H]3C)C1(C)C` [Compound 537, Ingenol 3-(3-methylthiophene-2-carboxylate)], the EC50 in assay [1] (setting [4]) is below 20 nM; in assay [2] (HeLa), 150 to 350 µM; in assay [3] (HEKa, 6 h) it was below 20 nM.

On to `CC1=C[C@]23C(=O)[C@@H](C=C(CO)[C@@H](O)[C@]2(O)[C@H]1OC(=O)c1c(N2CCCCC2)cnn1C)[C@H]1[C@@H](C[C@H]3C)C1(C)C` [Compound 538, Ingenol 3-(2-methyl-4-(1-piperidyl)pyrazole-3-carboxylate)], for which the EC50 in assay [1] (setting [4]) is below 20 nM; in assay [2] (HeLa), 150 to 350 µM; in assay [3] (HEKa, 6 h), 20 to 100 nM.

Take `CC1=C[C@]23C(=O)[C@@H](C=C(CO)[C@@H](O)[C@]2(O)[C@H]1OC(=O)c1nc(Cl)sc1C(C)C)[C@H]1[C@@H](C[C@H]3C)C1(C)C` [Compound 539, Ingenol 3-(2-chloro-5-isopropyl-thiazole-4-carboxylate)]: the 50% effective concentration (EC50) was 20 to 100 nM in assay [1] (setting [4]); below 150 µM in assay [2] (HeLa); below 20 nM in assay [3] (HEKa, 6 h).

Consider `CC1=C[C@]23C(=O)[C@@H](C=C(CO)[C@@H](O)[C@]2(O)[C@H]1OC(=O)c1c(Cl)c(C)nn1C)[C@H]1[C@@H](C[C@H]3C)C1(C)C` [Compound 540, Ingenol 3-(4-chloro-2,5-dimethyl-pyrazole-3-carboxylate)], for which the EC50 in assay [1] (setting [4]) is below 20 nM; in assay [2] (HeLa), below 150 µM; in assay [3] (HEKa, 6 h), below 20 nM.
